The nature of one data set: Solubility in water. The format is physicochemical.
The nature of data set [1]: Adsorption to aluminium hydroxide. Type of data set: physicochemical.

≈ marks a conversion by molar mass, not a printed value.

The solubility is the dissolved amount per volume that the medium holds. Read a high solubility as a readily soluble substance. `Cc1ccc2c(c1)nc(N)c1ncc(CCc3ccc(OCCOCCOCCC(F)(F)P(=O)(O)O)cc3C)cc12` [Compound K1] displayed a solubility in the data set “Solubility in water” of around 4000 µg/mL (≈ 6.78 mM). In addition, the “adsorption to aluminium hydroxide” value in data set [1] is “adsorbs well”.

For the origin of these results see patent US20200138927A1, “NON-CROSS-LINKED […] […] […] FOR USE IN C[…]” (GlaxoSmithKline Biologicals SA, priority 2012, published 2020).
